Experiments:
anergic human T-cells = assay: Anergic T-cell activation assessed by IFNγ secretion (ionomycin-induced anergy); type: cell-based; conditions: anergic T-cells re-challenged with anti-CD3 and anti-CD28 for 24 hours, read-out: IFNγ Fold change from baseline
Description: Peripheral blood mononuclear cells (PBMC) were obtained either: 1) by using Ficoll-Paque™ (GE Healthcare) for separation of peripheral blood hematopoietic cells from buffy coats of healthy human donors; or 2) directly from LeukoPak donations. Total human primary T-cells were isolated from the PBMCs utilizing negative selection with commercial kits following the manufacturer's protocol (Miltenyi Catalog #130-096-535 (i.e., cocktail of antibodies against surface markers CD14, CD15, CD16, CD19, CD34, CD36, CD56, CD123 and CD235a were incubated with the PBMCs before passing the samples by magnetic beads for removal of cells expressing those surface markers) or StemCells Catalog #17951) to yield >95% CD3+ cells assessed by flow cytometry. The cells were activated with immobilized anti-CD3 antibody (OKT3) and soluble anti-CD28 antibody (28.2) for two days at which time they are washed and allowed to rest for three days in the absence of stimulation. They were then treated with ionomycin (Sigma) for 18-24 hours to induce anergy. Following two washes to remove the ionomycin from the samples, Cbl-b inhibitor compounds were added to the cells at the indicated concentrations (e.g. 10, 1.11 and 0.37 μM) and incubated for 1 hour. The cells were then re-challenged with anti-CD3 antibody and anti-CD28 antibody for 24 hours at which point cell free supernatants were collected and assessed for cytokines (e.g., IFNγ) by ELISA (R&D Systems or Peprotech) or Luminex multiplex kits (Procarta Life Technologies) following manufacturer's protocols.
Cbl-b inhibitors were tested to determine their ability to induce or enhance secretion of cytokines from anergic T-cells (e.g. IFNγ), which is indicative of decreased T-cell tolerance.
Readouts were reported as fold change over baseline. Baseline for this study was the measurement obtained from anergic human T-cells stimulated with immobilized anti-CD3 and soluble anti-CD28, wherein the T-cells were not incubated with a Cbl-b inhibitor (Table 7). For IFNγ changes greater than 2.5-fold over baseline were considered a positive response (Table 7). Compounds were ranked into bins according to their readout as follows for IFNγ: A indicates ≤2.50, B indicates 2.51-4.00 and C indicates >4.01.

T-cells = assay: In vivo activity: CD25 expression on CD4+ or CD8+ T-cells of mice stimulated with anti-CD3 antibody; conditions: 2 μg anti-CD3 antibody, 24 hours
Summary of the method: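 C57BL/6 or BALB/c mice dosed with inhibitor (IV, IP, SC or PO, e.g. BID or TID), then stimulated with 2 μg anti-CD3 antibody. Plasma IL-2, IFNγ, TNFα at 8 h and CD25 on CD4+/CD8+ T-cells by flow cytometry at 24 h; fold change over vehicle plus anti-CD3, binned A–E.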

T-cell = assay: CD25 cell surface staining on T-cells stimulated with anti-CD3 antibody alone (Biological Example 2); type: cell-based; conditions: primary human total T-cells, baseline = anti-CD3/anti-CD28 stimulated cells without inhibitor, read-out: CD25 staining, Anti-CD3 stimulation, fold change over baseline; for fold induction at 1 µM: 1 μM compound; for fold induction at 8 µM: 8 μM compound

Row | SMILES | fold induction at 0.37 µM (anergic human T-cells) | fold induction at 1.11 µM (anergic human T-cells) | fold induction at 10 µM (anergic human T-cells) | CD4+ T-cell % CD25+ (T-cells; 45 mpk PO BID) | CD8+ T-cell % CD25+ (T-cells; 45 mpk PO BID) | CD4+ T-cell % CD25+ (T-cells; 90 mpk PO BID) | CD8+ T-cell % CD25+ (T-cells; 90 mpk PO BID) | CD4+ T-cell % CD25+ (T-cells; 135 mpk PO BID) | CD8+ T-cell % CD25+ (T-cells; 135 mpk PO BID) | CD4+ T-cell % CD25+ (T-cells; 180 mpk PO BID) | CD8+ T-cell % CD25+ (T-cells; 180 mpk PO BID) | fold induction at 1 µM (T-cell) | fold induction at 8 µM (T-cell)
1 | Cc1cc(C(=O)Nc2cccc(C3(Cc4nncn4C)COC3)c2)nc(C2CC2)n1 [Compound 336, 2-cyclopropyl-6-methyl-N-(3-(3-((4-methyl-4H-1,2,4-triazol-3-yl)methyl)oxetan-3-yl)phenyl)pyrimidine-4-carboxamide] | 2.51 to 4 | 2.51 to 4 | > 4.01 | D (D indicates 1.00-1.50) | D (D indicates 1.00-1.50) | D (D indicates 1.00-1.50) | D (D indicates 1.00-1.50) | C (C indicates 1.51-2.00) | D (D indicates 1.00-1.50) | C (C indicates 1.51-2.00) | D (D indicates 1.00-1.50) |  | 
2 | C[C@@H](c1cc2c(c(C(F)(F)F)c1)CN(c1cccc(C3(Cc4nncn4C)COC3)c1)C2=O)N1CC[C@H](F)C1 [Compound 412, 6-((S)-1-((S)-3-fluoropyrrolidin-1-yl)ethyl)-2-(3-(3-((4-methyl-4H-1,2,4-triazol-3-yl)methyl)oxetan-3-yl)phenyl)-4-(trifluoromethyl)isoindolin-1-one] | ≤ 2.5 | > 4.01 | > 4.01 |  |  | D (D indicates 1.00-1.50) | D (D indicates 1.00-1.50) | C (C indicates 1.51-2.00) | D (D indicates 1.00-1.50) | B (B indicates 2.01-2.50) | D (D indicates 1.00-1.50) | > 1 | > 1
3 | C[C@H](c1cc2c(c(C(F)(F)F)c1)CN(c1cccc(C3(Cc4nncn4C)COC3)c1)C2=O)N1CC[C@H](F)C1 [Compound 413, 6-((R)-1-((S)-3-fluoropyrrolidin-1-yl)ethyl)-2-(3-(3-((4-methyl-4H-1,2,4-triazol-3-yl)methyl)oxetan-3-yl)phenyl)-4-(trifluoromethyl)isoindolin-1-one] | 2.51 to 4 | > 4.01 | > 4.01 |  |  | D (D indicates 1.00-1.50) | D (D indicates 1.00-1.50) | D (D indicates 1.00-1.50) | D (D indicates 1.00-1.50) | D (D indicates 1.00-1.50) | D (D indicates 1.00-1.50) | > 1 | > 1
4 | Cn1cnnc1CC1(c2cccc(N3Cc4c(cc(CN5CC(F)C5)cc4C(F)(F)F)C3=O)c2)COC1 [Compound 415, 6-((3-fluoroazetidin-1-yl)methyl)-2-(3-(3-((4-methyl-4H-1,2,4-triazol-3-yl)methyl)oxetan-3-yl)phenyl)-4-(trifluoromethyl)isoindolin-1-one] | 2.51 to 4 | 2.51 to 4 | > 4.01 |  |  | D (D indicates 1.00-1.50) | D (D indicates 1.00-1.50) | D (D indicates 1.00-1.50) | E (E indicates <1.00) | D (D indicates 1.00-1.50) | E (E indicates <1.00) | > 1 | > 1
5 | Cn1cnnc1CC1(c2cccc(NC(=O)c3cc(CN4CCC5(CC5)C4)cc(C4CC4)n3)c2)COC1 [Compound 519, 4-((5-azaspiro[2.4]heptan-5-yl)methyl)-6-cyclopropyl-N-(3-(3-((4-methyl-4H-1,2,4-triazol-3-yl)methyl)oxetan-3-yl)phenyl)picolinamide] | > 4.01 | > 4.01 | > 4.01 | C (C indicates 1.51-2.00) | D (D indicates 1.00-1.50) | A (A indicates >2.50) | D (D indicates 1.00-1.50) |  |  | A (A indicates >2.50) | C (C indicates 1.51-2.00) | > 1 | 
6 | Cn1cnnc1CC1(c2cccc(N3Cc4c(cc(CN5CCC6(CC6)C5)cc4C(F)(F)F)C3=O)c2)COC1 [Compound 520, 6-((5-azaspiro[2.4]heptan-5-yl)methyl)-2-(3-(3-((4-methyl-4H-1,2,4-triazol-3-yl)methyl)oxetan-3-yl)phenyl)-4-(trifluoromethyl)isoindolin-1-one] | ≤ 2.5 | 2.51 to 4 | > 4.01 | D (D indicates 1.00-1.50) | D (D indicates 1.00-1.50) | D (D indicates 1.00-1.50) | D (D indicates 1.00-1.50) | C (C indicates 1.51-2.00) | D (D indicates 1.00-1.50) | B (B indicates 2.01-2.50) | D (D indicates 1.00-1.50) | > 1 | 

Reference: patent publication US20220324835A1 (Nurix Therapeutics, Inc., priority 2018, published 2022)
